Test results: US5610063A, “cDNA for α-N-acetyl-galactosaminidase from Gallus domesticus” (Curators of the University of Missouri, priority 1995, dated 1997)

T1: Gallus N-acetyl-α-D-galactosaminidase (Gallus gallus, UniProt Q90744)
T1 construct: the cDNA clone corresponds to the region of the mRNA encoding the mature polypeptide for the chicken α-N-acetyl-galactosaminidase; from tissue; host or cells: chicken liver
T1 sequence (Q90744 1-405 S162A): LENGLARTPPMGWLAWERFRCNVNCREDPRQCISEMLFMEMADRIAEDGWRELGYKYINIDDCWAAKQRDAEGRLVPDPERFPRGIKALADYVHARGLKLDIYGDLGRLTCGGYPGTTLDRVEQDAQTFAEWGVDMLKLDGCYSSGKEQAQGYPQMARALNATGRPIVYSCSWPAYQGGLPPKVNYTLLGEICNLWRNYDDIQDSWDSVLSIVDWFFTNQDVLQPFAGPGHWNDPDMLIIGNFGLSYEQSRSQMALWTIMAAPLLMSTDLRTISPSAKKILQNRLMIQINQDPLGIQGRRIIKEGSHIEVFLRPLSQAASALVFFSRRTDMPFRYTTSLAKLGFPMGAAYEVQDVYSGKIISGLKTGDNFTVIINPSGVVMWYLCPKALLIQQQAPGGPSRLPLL


Legend:
[1] = molecular target: T1, Gallus N-acetyl-α-D-galactosaminidase; assay: Substrate specificity (relative activity); type: biochemical, Gallus domesticus; settings: % of enzyme activity on the corresponding conjugate, 2.5 mM PNP conjugates, pH 3.5
[2] = substrate: O=[N+]([O-])c1ccc(O[C@H]2O[C@H](CO)[C@H](O)[C@H](O)[C@H]2O)cc1; assay: Kinetic parameters (Km, turnover number) of Gallus enzyme; type: biochemical, Gallus domesticus; settings: other: Table III, Example 1 preparation, 50 mM Na citrate + 1 mg/ml BSA, pH 3.5, mean of six determinations, 37.0 °C
Procedure: (§1) The Kms for ONP- and PNP-N-acetyl-α-D-galactosaminide were determined by varying the substrate concentration in 50 mM Na citrate+1 mg/ml BSA, pH 3.5.

[3] = substrate: CC(=O)N[C@H]1[C@@H](Oc2ccc([N+](=O)[O-])cc2)O[C@H](CO)[C@H](O)[C@@H]1O; assay: as above; type: biochemical, Gallus domesticus
Procedure: as §1

[4] = substrate: CC(=O)N[C@H]1[C@@H](Oc2ccccc2[N+](=O)[O-])O[C@H](CO)[C@H](O)[C@@H]1O; assay: as above; type: biochemical, Gallus domesticus; settings: other: Table III, Example 1 preparation, 50 mM Na citrate + 1 mg/ml BSA, pH 3.5, mean of six determinations, 37.0 °C
Procedure: as §1

[5] = Enzymatic activity quantitated during the purification; type: biochemical; settings: Table V, improved (batch) purification; mean from three different preps
Procedure: Enzymatic activity was quantitated during the purification by measuring production of p-nitrophenol (PNP) from PNP-N-acetyl-α-D-galactosaminide or o-nitrophenol (ONP) from ONP-N-acetyl-α-D-galactosaminide. Enzyme aliquots were incubated in 200 μl of 50 mM Na citrate+1 mg/ml BSA+1.0 mM PNP-N-acetyl-α-D-galactosaminide, pH 3.5, at 37° C. The reactions were quenched with 1.0 ml of 0.25M Na2 CO3 and the OD 405 nm was measured. One unit of activity was defined as 1.0 μmole of substrate hydrolyzed per minute.

[6] = Table IV, Example 1 preparation
[7] = Table VI, improved purification (Example 2)
[8] = other: Example 2 batch preparation, pH 3.5, N=3, 37.0 °C
[9] = other: Table III, Example 1 preparation, 50 mM Na citrate + 1 mg/ml BSA, pH 3.5, mean of six determinations, 37.0 °C

| Molecule | Relative Activity [1, 6] [%] | Relative Activity [1, 7] [%] | also measured |
| --- | --- | --- | --- |
| O=[N+]([O-])c1ccc(O[C@@H]2O[C@H](CO)[C@H](O)[C@H](O)[C@H]2O)cc1 [PNP-β-D-galactopyranoside] | < 0.08 | < 0.08 |  |
| O=[N+]([O-])c1ccc(O[C@@H]2O[C@H](CO)[C@@H](O)[C@H](O)[C@H]2O)cc1 [PNP-β-D-glucopyranoside] | < 0.08 | < 0.08 |  |
| C[C@@H]1O[C@H](Oc2ccc([N+](=O)[O-])cc2)[C@@H](O)[C@H](O)[C@@H]1O [PNP-β-L-fucopyranoside] | < 0.08 | < 0.08 |  |
| O=[N+]([O-])c1ccc(O[C@H]2O[C@H](CO)[C@@H](O)[C@H](O)[C@H]2O)cc1 [PNP-α-D-glucopyranoside] | < 0.08 | < 0.08 |  |
| Cc1cc(=O)oc2cc(O[C@H]3O[C@H](CO)[C@H](O)[C@H](O)[C@H]3O)ccc12 [4-MU-α-D-galactopyranoside] | 100.00 | 100.00 |  |
| CC(=O)N[C@H]1[C@H](Oc2ccc([N+](=O)[O-])cc2)O[C@H](CO)[C@H](O)[C@@H]1O [PNP-N-acetyl-β-D-galactosaminide] | < 0.08 | < 0.08 |  |
| CC(=O)N[C@H]1[C@H](Oc2ccc([N+](=O)[O-])cc2)O[C@H](CO)[C@@H](O)[C@@H]1O [PNP-N-acetyl-β-D-glucosaminide] | < 0.08 | < 0.08 |  |
| C[C@@H]1O[C@@H](Oc2ccc([N+](=O)[O-])cc2)[C@@H](O)[C@H](O)[C@@H]1O [PNP-α-L-fucopyranoside] | < 0.08 | < 0.08 |  |
| CC(=O)NC1C(O)CC(Oc2ccc3c(C)cc(=O)oc3c2)(C(=O)O)OC1C(O)C(O)CO (stereo not drawn) [4-MU-N-acetyl-α-neuraminic acid] | < 0.01 | < 0.01 |  |
| O=[N+]([O-])c1ccc(O[C@@H]2OC[C@H](O)[C@H](O)[C@H]2O)cc1 [PNP-α-L-arabinopyranoside] | < 0.08 | < 0.08 |  |
| CC(=O)N[C@H]1[C@@H](Oc2ccc([N+](=O)[O-])cc2)O[C@H](CO)[C@H](O)[C@@H]1O [PNP-N-acetyl-α-D-galactosaminide] | 100.00 | 100.00 |  |
| CC(=O)N[C@H]1[C@@H](Oc2ccc([N+](=O)[O-])cc2)O[C@H](CO)[C@@H](O)[C@@H]1O [PNP-N-acetyl-α-D-glucosaminide] | < 0.08 | < 0.08 |  |
| Gallus N-acetyl-α-D-galactosaminidase (Gallus gallus) (protein, the cDNA clone corresponds to the region of the mRNA encoding the mature polypeptide for the chicken α-N-acetyl-galactosaminidase; from tissue; host or cells: chicken liver) LENGLARTPPMGWLAWERFRCNVNCREDPRQCISEMLFMEMADRIAEDGWRELGYKYINIDDCWAAKQRDAEGRLVPDPERFPRGIKALADYVHARGLKLDIYGDLGRLTCGGYPGTTLDRVEQDAQTFAEWGVDMLKLDGCYSSGKEQAQGYPQMARALNATGRPIVYSCSWPAYQGGLPPKVNYTLLGEICNLWRNYDDIQDSWDSVLSIVDWFFTNQDVLQPFAGPGHWNDPDMLIIGNFGLSYEQSRSQMALWTIMAAPLLMSTDLRTISPSAKKILQNRLMIQINQDPLGIQGRRIIKEGSHIEVFLRPLSQAASALVFFSRRTDMPFRYTTSLAKLGFPMGAAYEVQDVYSGKIISGLKTGDNFTVIINPSGVVMWYLCPKALLIQQQAPGGPSRLPLL |  |  | Km [2]: 10700 µM; kcat [2]: 201 Moles of substrate hydrolyzed per mole of enzyme per minute; Km [3, 8]: 0.86, S.D.=0.03 mM; kcat [3, 8]: 3318, S.D.=118.5 moles substrate/mole enzyme/minute; Km [3, 9]: 1190 µM; kcat [3, 9]: 2370 Moles of substrate hydrolyzed per mole of enzyme per minute; Km [4]: 2400 µM; kcat [4]: 637 Moles of substrate hydrolyzed per mole of enzyme per minute |
| Affinity Concentrate: purified α-N-acetyl-galactosaminidase after affinity column and concentration (Example 2) (protein, UniProt Q90744 1-405, looked up) Alpha-N-acetylgalactosaminidas …: LENGLARTPPMGWLAWERFRCNVNCREDPRQCISEMLFMEMADRIAEDGWRELGYKYINIDDCWAAKQRDAEGRLVPDPERFPRGIKALADYVHARGLKLDIYGDLGRLTCGGYPGTTLDRVEQDAQTFAEWGVDMLKLDGCYSSGKEQAQGYPQMARALNSTGRPIVYSCSWPAYQGGLPPKVNYTLLGEICNLWRNYDDIQDSWDSVLSIVDWFFTNQDVLQPFAGPGHWNDPDMLIIGNFGLSYEQSRSQMALWTIMAAPLLMSTDLRTISPSAKKILQNRLMIQINQDPLGIQGRRIIKEGSHIEVFLRPLSQAASALVFFSRRTDMPFRYTTSLAKLGFPMGAAYEVQDVYSGKIISGLKTGDNFTVIINPSGVVMWYLCPKALLIQQQAPGGPSRLPLL |  |  | Specific Activity [5]: 71.03 µmol/mg/min |
